Data reported in patent US5677466A, “Labelled fibrinogen receptor antagonists, the use thereof and processes for preparing them” (Dr. Karl Thomae, GmbH, priority 1992, dated 1997).

System: fibrinogen receptor
Assay: fibrinogen receptor binding test with ^3 H-BIBU 52 on human thrombocytes in plasma
Settings: in the presence of plasma, non-labelled BIBU 52 as competitor
Description: The fibrinogen receptor binding test according to the invention was carried out, for example, using (3S,5S)-5-[(4'-amidino-4-biphenylyl)-oxymethyl]-3-carboxymethyl-pyrrolidin-2-one-[3-^3 H-4-biphenylyl][=^3 H-BIBU 52 ZW] as ligand in the following manner:
A suspension of human thrombocytes in plasma is incubated with ^3 H-BIBU 52 and varying concentrations of the substance to be tested. The free and bound ligand is separated off by centrifuging and quantitatively determined by scintillation counting. The inhibition of the ^3 H-BIBU 52 binding by the test substance is determined from the measurements obtained.
In order, for example, to measure the competition of binding of ^3 H-BIBU 52 by non-labelled BIBU 52, blood is taken from an anticubital vein and anticoagulated with trisodium citrate (final concentration 13 mM). The blood is centrifuged for 10 minutes at 170 ×g and the supernatant platelet-rich plasma (PRP) is removed. The remaining blood is sharply centrifuged once more in order to obtain plasma. The PRP is diluted with autologous plasma 1:10. […] 100 μl thereof are measured in order to determine the free ligand. The pellet is dissolved in 500 μl of 0.2N NaOH, 450 μl are mixed with 25 μl of 5N HCl and measured. The residual plasma remaining in the pellet is determined from the ^14 C-content and the bound ligand is determined from the ^3 H-measurement. […]

Which “binding of tritiated BIBU 52 to human thrombocytes (FIG. 1)” value does the source give for `N=C(N)c1ccc(-c2ccc(OC[C@@H]3C[C@@H](CC(=O)O)C(=O)N3)cc2)cc1` [BIBU 52, (3S,5S)-5-[(4'-amidino-4-biphenylyl)-oxymethyl]-3-carboxymethyl-pyrrolidin-2-one] here?
The value was “supression of binding”.
